Common to all, as to format: biochemical, rat (male Wistar)
In assay [1] the target is T1, MAO-B (Rattus norvegicus, UniProt P19643).
T1 construct: suspension of 1 part by volume of the forebrains of male Wistar rats; from tissue; host or cells: forebrain of male Wistar rats, suspension in potassium phosphate buffer
T1 sequence (P19643 1-520): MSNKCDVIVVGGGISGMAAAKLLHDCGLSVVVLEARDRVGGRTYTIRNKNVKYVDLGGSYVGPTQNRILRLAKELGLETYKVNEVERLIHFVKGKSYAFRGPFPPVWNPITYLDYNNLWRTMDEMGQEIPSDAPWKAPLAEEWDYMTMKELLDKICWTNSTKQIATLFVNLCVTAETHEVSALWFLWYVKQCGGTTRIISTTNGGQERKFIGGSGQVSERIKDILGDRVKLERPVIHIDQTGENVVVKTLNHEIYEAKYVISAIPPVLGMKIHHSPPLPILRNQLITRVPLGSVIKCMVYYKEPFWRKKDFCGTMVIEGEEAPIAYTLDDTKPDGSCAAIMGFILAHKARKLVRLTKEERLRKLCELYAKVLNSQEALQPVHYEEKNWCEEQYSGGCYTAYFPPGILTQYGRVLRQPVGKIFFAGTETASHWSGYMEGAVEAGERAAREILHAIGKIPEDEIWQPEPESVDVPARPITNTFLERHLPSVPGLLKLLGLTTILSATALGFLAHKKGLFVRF
As to the kind of experiment: MAO-B inhibition activity with rat forebrain (14C-PEA substrate). To be noted: 10^-5 M, read-out: Inhibiting activity MAO-B (at 10^-5 M).

The target in a further assay is T2, MAO-A (Rattus norvegicus, UniProt P21396).
T2 construct: suspension of 1 part by volume of the forebrains of male Wistar rats; from tissue; host or cells: forebrain of male Wistar rats, suspension in potassium phosphate buffer
T2 sequence (P21396 1-526): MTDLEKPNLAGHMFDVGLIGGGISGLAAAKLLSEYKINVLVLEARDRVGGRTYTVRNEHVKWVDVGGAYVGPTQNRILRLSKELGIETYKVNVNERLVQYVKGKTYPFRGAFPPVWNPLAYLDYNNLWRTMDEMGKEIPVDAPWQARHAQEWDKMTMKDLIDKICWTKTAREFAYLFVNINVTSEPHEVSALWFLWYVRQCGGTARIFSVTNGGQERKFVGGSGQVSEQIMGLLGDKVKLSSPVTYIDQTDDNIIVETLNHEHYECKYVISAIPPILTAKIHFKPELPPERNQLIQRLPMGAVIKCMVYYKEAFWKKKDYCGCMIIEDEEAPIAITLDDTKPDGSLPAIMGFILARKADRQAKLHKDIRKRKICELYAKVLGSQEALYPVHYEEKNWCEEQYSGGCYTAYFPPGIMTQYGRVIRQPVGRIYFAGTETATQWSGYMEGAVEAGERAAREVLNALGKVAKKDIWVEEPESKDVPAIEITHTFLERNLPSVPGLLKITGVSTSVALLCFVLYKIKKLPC
In words: MAO-A inhibition activity with rat forebrain (14C-5-HT substrate). Particulars: for inhibition at 0.1 µM: 10^-7 M, read-out: Inhibiting activity MAO-A (% at 10^-7 M). How it is done: (§1) Determination of MAO inhibition activity with the use of rat forebrain:
(§2) The MAO inhibition activity was determined by a method of Prada et al. (J. Pharmacol. Exp. Ther., 248, 400-414 (1989)).
(§3) The enzyme reaction was conducted in 300 μl of a solution having the following composition:
(§4) ^14 C-labelled enzyme substrate
(§5) The enzyme source used was a suspension of 1 part by volume of the forebrains of male Wistar rats in 5 parts by volume of a 0.1M potassium phosphate buffer (pH 7.4). The enzyme source was mixed with the test compound and the mixture was prewarmed at 37° C. for 10 min. Then the enzyme substrate was added thereto to initiate the enzyme reaction. After 10 min, 200 μl of 2N hydrochloric acid was added to terminate the reaction.
(§6) As the substrates for MAO-A and MAO-B, 5-HT (serotonin) and PEA (β-phenethylamine) each labelled with ^14 C were used, respectively. The specific radioactivities of 5-HT and PEA were regulated to 11.1 MBq/mmol and 29.6 MBq/mmol, respectively, and the concentrations of them were 200 μM and 20 μM, respectively, in the reaction.
(§7) The test compound was dissolved in distilled water so that an intended concentration could be obtained in the enzyme reaction. When the test compound was insoluble in water, it was dissolved in dimethyl sulfoxide to obtain a 10% solution.
(§8) Diethyl ether and n-heptane were used as […], respectively. After the termination of the enzyme reaction, 3 ml of the solvent was added to the reaction mixture and shaken for 10 min. After centrifugation at 3,000 rpm for about 10 min, the lower aqueous layer was frozen in dry ice/acetone. The upper organic layer was recovered by decantation and the radioactivity thereof was determined with a liquid scintillation counter.
(§9) The inhibiting activities of the test compounds against MAO A and MAO B are given at the concentrations of 10^-7 M and 10^-6 M or by IC50 values.

For assay [2], the target named is T1, MAO-B. In words: MAO-B inhibition activity with rat forebrain (14C-PEA substrate). To be noted: 10^-6 M, read-out: Inhibiting activity MAO-B (% at 10^-6 M). On the procedure:
as §1, §2, §3, §4, §5, §6, §7, §8, §9

Regarding `COCC1CN(c2ccc3nc(C(C)(O)CCC#N)sc3c2)C(=O)O1` (stereo not drawn) [Example 37], the inhibition at 10 µM at MAO-B [1] is 35%. Also, the IC50 (in general, the concentration at which inhibition is half-maximal) at MAO-A (5-HT 200 μM, read-out: Inhibiting activity MAO-A, IC50) was found to be 45 nM.

As for `COCC1CN(c2ccc3nc(N(CCC#N)CCC#N)sc3c2)C(=O)O1` (stereo not drawn) [Example 43], the inhibition at 1 µM at MAO-A (10^-6 M, read-out: Inhibiting activity MAO-A (at 10^-6 M)) came out at 87%; at MAO-B [2] it was 14%.

For the compound `COCC1CN(c2ccc3sc(C)nc3c2)C(=O)O1` (stereo not drawn) [Example 44], the inhibition at 0.1 µM at MAO-A came out at 6%. Moreover, the inhibition at 1 µM on MAO-B [2] was determined as 4%.

Consider `COCC1CN(c2ccc3sc(NC(=O)CC#N)nc3c2)C(=O)O1` (stereo not drawn) [Example 45], for which, on MAO-A, the inhibition at 0.1 µM turned out to be 40%. Also, the inhibition at 1 µM at MAO-B [2] was 10%.

`COCC1CN(c2ccc3sc(C(O)CCC#N)nc3c2)C(=O)O1` (stereo not drawn) [Example 46]: on MAO-A, the inhibition at 0.1 µM amounted to 7%. Moreover, the inhibition at 1 µM on MAO-B [2] turned out to be 3%.

Regarding `COCC1CN(c2ccc3sc(CCCC#N)nc3c2)C(=O)O1` (stereo not drawn) [Example 47], at MAO-A, the inhibition at 0.1 µM amounted to 52%. Further, at MAO-B [2], the inhibition at 1 µM was 9%.

The values above are taken from patent US5475014A, “Oxazolidone derivative” (Eisai Co., Ltd., priority 1991, dated 1995).
